Measured values from US12576083B2, “Combinational therapy of LSD1 inhibitors with P21 activators in the treatment of cancer” (Istituto Europeo di Oncologia S.r.l., priority 2017, dated 2026).
Entries after “also recorded” stand apart in the source; their conditions may differ.

How the values were obtained:
p21 [1] = assay: Western-blot of p21 in Kasumi cells; format: cell-based
Source text: FIGS. 7A-7F. […] (FIG. 7C) Relative proliferation of Kasumi cells infected with SCR (control) or p21 shRNA treated with MC2580. (FIG. 7D) Representative light micrograph show Wright-Giemsa staining of Kasumi cells after 1 week treatment with indicated inhibitors. (FIG. 7E) summary of cell-cycle status of Kasumi cells following 1 week treatment with indicated inhibitors. (FIG. 7F) Immunoblot of P21 in MC2580-treated Kasumi cells. (SCR=Scramble shRNA, NI=Not Infected, LSD1i=LSD1 inhibitor=MC2580).
(§1) Kasumi cells were treated with p21-shRNA, scramble shRNA (SCR), LSD1 inhibitor MC2580, p21-shRNA plus MC2580, scramble shRNA (SCR) plus MC2580. Non-infected (NI) Kasumi cells were included as control. The proliferation of the treated cells were quantified before treatment and post-treatment from day 2, day 4, and day 7 (FIG. 7C). The cells following the 1 week treatment were analyzed under light micrographs using Wright-Giemsa staining (FIG. 7D). Cell cycle analysis were performed following the 1 week treatment.

UF1 cells = assay: Cell cycle analysis of UF1 cells; format: cell-based; conditions: 1 week treatment
Method: Acute promyelocytic leukemia (APL) UF1 cells were treated with 2 μM LSD1 inhibitor MC2580, 10 nM retinoic acid (RA), 2 μM LSD1 inhibitor MC2580 plus 10 nM RA, and DMSO (control) for 7 days. The proliferation of the treated cells were quantified before treatment and post-treatment from each of day 2 to day 7 (FIG. 2A). The cells following the 1 week treatment were analyzed under light micrographs using Wright-Giemsa staining (FIG. 2B). The LSD1-inhibition induced expression of CD11b gene expression were analyzed. The mRNA of CD11b of the treated cells under each condition were normalized using GAPDH (FIG. 2C). PML-RARα protein level in the treated cells was analyzed by immune-blotting using an antibody against PML-RARα. Immuno-blotting of tubulin was used as loading control. (FIG. 2D). […] Cell cycle analysis were performed following the 1 week treatment. […] (FIG. 2E).
as §1, with “UF1” for “Kasumi”, “from each of” for “from”, “2 to” for “2, day 4, and”, “5C).” for “7C).”, “5D).” for “7D).”, “treatment. […] (FIG. 5E).” for “treatment.”

MMC-38B and MMC-34 cells [2] = assay: Cell cycle analysis of MMC-38B and MMC-34 melanoma cells; format: cell-based, human; conditions: MMC-38B and MMC-34, rescued by p21 knock-down
Method: FIG. 16B depicts cell-cycle status of melanoma cells analyzed in FIG. 16A.
(§2) MMC-38B and MMC-34 cells were treated with p21-shRNA (“P21KD-DMSO”), scramble shRNA (“SCR-DMSO”), scramble shRNA plus LSD1 inhibitor (MC2580) (“SCR-LSD1i”), or p21-shRNA plus MC2580 (“P21KD-LSD1i”). Tubulin was used as a loading control.

p21 gene = assay: Chromosome Conformation Capture assays (3C-qPCR) in UF1 and NB4 cells; format: cell-based; conditions: UF1 and NB4 cells, 12, 24, or 36 hours
Method: FIG. 27 depicts results from chromosome conformation capture assays (3C-qPCR) performed with chromatin from UF1 and NB4 cells that were treated for indicated times with the LSD1 inhibitor MC2580. (NT: not treated).
Luciferase reporter assays were performed to measure the activity of enhancer 1 (“E1”) and enhancer 1 (“E2”) of the p21 gene promoter in 293T cells and the results are depicted in FIG. 26. The pGL3 plasmid without the enhancer region (empty) was used as a negative control. Chromosome Conformation Capture assays (3C-qPCR) were performed with chromatin from UF1 and NB4 cells that were treated with the LSD1 inhibitor MC2580 for 12, 24, or 36 hours and the results are depicted in FIG. 27. Untreated cells (“Neg”) were included as control.

[3] = test system: primary human melanoma cell lines (MMC-27B, MMC-49, MMC-936, MMC-35, MMC-38B, MMC-34); assay: Proliferation of six primary human melanoma cell lines with or without MC2580; format: cell-based; conditions: MC2580 2 μM, 6 days, versus cell lines having a shorter doubling time
Method: FIG. 14 depicts the proliferation of six primary human melanoma cell lines (MMC-27B, MMC-49, MMC-936, MMC-35, MMC-38B, MMC-34) over 6 days with or without treatment of LSD1 inhibitor MC2580 (2 μM) was analyzed. “MC” stands for MC2580 treated cells. “DMSO” stands for control cells treated with DMSO.
The proliferation of six primary human melanoma cell lines (MMC-27B, MMC-49, MMC-936, MMC-35, MMC-38B, MMC-34) over 6 days with or without treatment of an LSD1 inhibitor (MC2580) was analyzed. “MC” stands for MC2580 treated cells. Control cells (“DMSO”) were treated with DMSO.

CD11b gene = CD11b gene expression in UF1 cells (mRNA normalized against GAPDH); format: cell-based
Method: (§3) FIGS. 2A-2E. […] (FIG. 2A) Relative proliferation of UF1 cells treated with MC2580 (2 μM) and/or retinoic acid (10 nM) for 1 week. (FIG. 2B) Representative light micrograph show Wright-Giemsa staining of UF1 cell after treatment for 1 week. […] Values are normalized against GAPDH. (FIG. 2D) Immunoblot of PML-RARα in treated UF1 cells with indicated inhibitors. LSD1 inhibitors induces differentiation without PML-RARα degradation. (tubulin serves as control). (FIG. 2E) summary of cell-cycle status of UF1 cells following 1 week treatment with indicated inhibitors. (retinoic acid low(l)=10 nM, LSD1i=LSD1 inhibitor=MC2580).
(§4) Acute promyelocytic leukemia (APL) UF1 cells were treated with 2 μM LSD1 inhibitor MC2580, 10 nM retinoic acid (RA), 2 μM LSD1 inhibitor MC2580 plus 10 nM RA, and DMSO (control) for 7 days. The proliferation of the treated cells were quantified before treatment and post-treatment from each of day 2 to day 7 (FIG. 2A). The cells following the 1 week treatment were analyzed under light micrographs using Wright-Giemsa staining (FIG. 2B). The LSD1-inhibition induced expression of CD11b gene expression were analyzed. The mRNA of CD11b of the treated cells under each condition were normalized using GAPDH (FIG. 2C). PML-RARα protein level in the treated cells was analyzed by immune-blotting using an antibody against PML-RARα. Immuno-blotting of tubulin was used as loading control. […]

p21 [4] = assay: p21 expression (immunoblotting) in MMC-38B and MMC-34 melanoma cells; format: cell-based, human; conditions: MMC-38B and MMC-34, rescued by p21 knock-down
Method: FIG. 16C depicts the p21 expression level in melanoma cells analyzed in FIG. 16A.
as §2

MMC-38B and MMC-34 cells [5] = assay: Proliferation of MMC-38B and MMC-34 melanoma cells with shRNA and MC2580; format: cell-based, human; conditions: MMC-38B and MMC-34, 6 days, rescued by p21 knock-down
Method: FIG. 16A depicts relative proliferation of melanoma cells (MMC-38B and MMC-34) that were treated with p21-shRNA (“P21KD-DMSO”), scramble shRNA (“SCR-DMSO”), scramble shRNA plus LSD1 inhibitor MC2580 (“SCR-LSD1i”), or p21-shRNA plus MC2580 (“P21KD-LSD1i”). Data are presented as mean of triplicates±SD.
as §2

Kasumi cells = assay: Cell cycle analysis of Kasumi cells; format: cell-based; conditions: 1 week treatment
Method: as §1

p21 [6] = assay: Western-blot of p21 in NCI-H69 cells; format: cell-based
Method: (§5) FIGS. 8A-8D. […] (FIG. 8B) Relative proliferation of NCI-H69 cells infected with SCR (control) or p21 shRNA treated with MC2580. (FIG. 8C) Summary of cell-cycle status of NCI-H69 cells following 10 days treatment with indicated inhibitors. (FIG. 8D) Immunoblot of P21 in MC2580-treated NCI-H69 cells. (SCR=Scramble shRNA, NI=Not Infected, LSD1i=LSD1 inhibitor=MC2580).
as §1, with “NCI-H69” for “Kasumi”, “4, day 6, day 8,” for “4,”, “10” for “7”, “8B).” for “7C). The cells following the 1 week treatment were analyzed under light micrographs using Wright-Giemsa staining (FIG. 7D).”

p21 [7] = assay: p21 protein (Western-blot) and p21 gene expression in UF1 cells; format: cell-based
Method: FIGS. 6A-6B. LSD1 inhibition leads to further upregulation of P21 RNA and protein level but not in P21KD cells. (FIG. 6A) Immunoblot of P21 in MC2580-treated UF1 cells. […] (SCR=Scramble shRNA, NI=Not Infected, LSD1i=LSD1 inhibitor=MC2580).
UF1 cells were treated with p21-shRNA, scramble shRNA (SCR), LSD1 inhibitor MC2580, p21-shRNA plus MC2580, scramble shRNA (SCR) plus MC2580. Non-infected (NI) UF1 cells were included as control. Immuno-blotting of tubulin was used as loading control.

[8] = test system: Acute promyelocytic leukemia (APL) NB4 cells; assay: NB4 cells treated with MC2580: proliferation, Wright-Giemsa staining, serial replating CFU assay; format: cell-based; conditions: 2 μM, 6 days, DMSO control
Method: FIGS. 1A-1C. […] (FIG. 1A) Relative proliferation of NB4 APL cells treated with MC2580 ([…]) and RA ([…]) for indicated times (DMSO serves as control). (FIG. 1B) Representative light micrographs show Wright-Giemsa staining of NB4 cell after treatment for 6 days. (DMSO serves as a control). (FIG. 1C) Analysis of the proliferative potential of treated NB4 cells by serial replating assay. (DMSO serves as control). (RA high(h)=retinoic acid, 1 μM, LSD1i=LSD1 inhibitor=MC2580).
Acute promyelocytic leukemia (APL) NB4 cells were treated with 2 μM LSD1 inhibitor MC2580, 1 μM retinoic acid (RA), and DMSO (control) for 6 days. The proliferation of the treated cells were quantified before treatment and during each of the 6 days (FIG. 1A). The treated cells were analyzed under light micrographs using Wright-Giemsa staining (FIG. 1B). The proliferation potential of the treated cells were analyzed by serial replating and Colony-Forming Unit (CFU) Assay (FIG. 1C).

[9] = test system: small cell lung carcinoma NCI-H69 cells; assay: Cell cycle analysis of NCI-H69 cells; format: cell-based; conditions: 1 week treatment
Method: as §5
as §1, with “NCI-H69” for “Kasumi”, “4, day 6, day 8,” for “4,”, “10” for “7”, “8B).” for “7C). The cells following the 1 week treatment were analyzed under light micrographs using Wright-Giemsa staining (FIG. 7D).”

NB4 cells = NB4 cells treated with HDAC inhibitors with or without MC2580: proliferation, staining, cell cycle analysis; format: cell-based; conditions: versus untreated control cells (Scr-DMSO), 1 week treatment
Source text: FIGS. 10A-10D. […] (FIG. 10A) Relative proliferation of NB4 cells infected with SCR (control) or p21 shRNA and treated with HDAC inhibitor and/or MC2580. (FIG. 10B and FIG. 10C) Representative light micrograph show Wright-Giemsa staining of NB4 cells infected with SCR (control) or p21 shRNA and treated with HDAC inhibitor and/or MC2580. (FIG. 10D) Summary of cell-cycle status of NB4 cells infected with SCR (control) or p21 shRNA and treated with HDAC inhibitor and/or MC2580. (SCR=Scramble shRNA, NI=Not Infected, LSD1i=LSD1 inhibitor=MC2580).
NB4 cells were treated with HDAC inhibitors, trichostatin A (TSA) and suberoylanilide hydroxamic acid (SAHA), in combination with p21-shRNA or scramble shRNA (SCR), with or without LSD1 inhibitor MC2580. NB4 cells with p21 knock-down without HDAC inhibitor treatment (p21KD-DMSO), NB4 cells without p21 knock-down and without HDAC inhibitor treatment (Scr-DMSO) were included as control. The proliferation of the treated cells were quantified before treatment and post-treatment from day 2, day 4, and day 6 (FIG. 10A). The treated cells were analyzed under light micrographs using Wright-Giemsa staining (FIG. 10B and FIG. 10C). Cell cycle analysis were performed following the 1 week treatment.

[10] = test system: Acute promyelocytic leukemia (APL) UF1 cells; assay: UF1 cells treated with MC2580: proliferation and Wright-Giemsa staining; format: cell-based; conditions: 2 μM, 7 days, DMSO control
Method: as §3, §4

PML-RARα = assay: Immunoblot of PML-RARα in treated UF1 cells; format: cell-based; conditions: tubulin loading control
Method: as §3, §4

## NC1CC1c1ccc(NC(=O)C(Cc2ccccc2)NC(=O)OCc2ccccc2)cc1 (centres unmarked) [MC2580]
p21 [1]
  p21 protein level in Kasumi cells: increased
UF1 cells
  UF1 cells arrested at the G0/G1 phase: More UF1 cells were arrested at the G0/G1 phase
MMC-38B and MMC-34 cells [2]
  cell cycle of human primary melanoma cells: cell cycle arrest
p21 gene
  looping of E1 and E2 enhancer regions to the transcription start site of the p21 gene: induces dynamic looping
[3]
  proliferation of slow-cycling melanoma cell lines (MMC-38B, MMC-34): more affected
CD11b gene
  expression of the CD11b gene (myeloid differentiation marker): induces expression of the CD11b gene
p21 [4]
  p21 expression in human primary melanoma cells: increase of p21 expression
MMC-38B and MMC-34 cells [5]
  cell growth of human primary melanoma cells: cell growth inhibition
Kasumi cells
  Kasumi cells arrested at the G0/G1 phase: More Kasumi cells were arrested at the G0/G1 phase
p21 [6]
  p21 protein level in NCI-H69 cells: increased
p21 [7]
  p21 gene (CDKN1A) expression in UF1 cells: induces p21 expression; also recorded: expressed at a higher level
p21 [7]; Western-blot, tubulin loading control
  p21 protein level in UF1 cells: increased
[8]
  sensitivity of NB4 cells to LSD1 inhibitor: resistant to LSD1 inhibition; also recorded: largely insensitive
[9]
  NCI-H69 cells arrested at the G0/G1 phase: More NCI-H69 cells were arrested at the G0/G1 phase
NB4 cells
  NB4 cells arrested at the G0/G1 phase, LSD1 inhibitor alone: More NB4 cells were arrested at the G0/G1 phase
[10]
  sensitivity of UF1 cells to LSD1 inhibitor: sensitive
PML-RARα
  UF1 cell differentiation and PML-RARα degradation: induces UF1 cells differentiation without PML-RARα degradation
